Results: PMC4783772, “PEGylated substrates of NSP4 protease: A tool to study protease specificity” (Scientific Reports, 2016)
Read-outs that look alike come from different tables or passages of the source. Square brackets hold non-standard residues; d marks the D form. Side chains are listed from the residue outwards. Peptide text beside a SMILES is read from it. * marks the point of attachment. 2Abz = Nc1ccccc1C(=O)O; Cbz = O=C(OCc1ccccc1)*; Dap = NC[C@H](N)C(=O)O; X1 = N=C(N)NCCOCC(=O)*; AEEA = NCCOCCOCC(=O)O

Columns and labels:
hNSP4 [1] = assay: Proteolytic cleavage pattern / stability with hNSP4 by HPLC; type: biochemical, human; settings: hNSP4 14 nM, RP-HPLC; for stability of the cleaved fluorescent fragment with hNSP4: up to 48 h
Method: Figure 4 HPLC analysis of substrate 1 (1.97 μM) incubated with hNSP4 (14 nM) at different time points: 0, 15 min, 24 h and 48 h.
For each sample of diluted substrate (concentrations 1.97 × 10^−6 M), the appropriate amount of enzyme (1.46 × 10^−8 M) was added, and the solution was incubated for 5, 30, and 60 min. The progress of the proteolytic reaction was monitored by RP-HPLC. The individual peaks resulting from the hydrolysis reaction were collected and identified using the mass spectra which were recorded on a Biflex III MALDI TOF mass spectrometer (Bruker Daltonics, Germany) using α-cyano-4-hydroxycinnamic acid as a matrix.

NSP4 [2] = settings: cited from earlier work
Source text: Table 2 Kinetic parameters of reported artificial substrates of NSP4. | column: kcat [s^−1]; KM [μM]; kcat/KM M^−1 × s^−1

human NSP4 [3] = biological target: T1, human NSP4 (Homo sapiens, UniProt Q6UWY2); assay: Determination of kinetic parameters (KM, kcat, kcat/KM) of substrate hydrolysis by NSP4; type: biochemical; settings: for kcat/KM: calculated from kcat and KM values
T1 construct: made in house; host or cells: Pichia pastoris
Method: (§1) For the enzymatic studies, we used human NSP4 expressed in a Pichia pastoris expression system as described in ref. [15]. The NSP4 concentration used in the deconvolution of the library was […]. The bovine β-trypsin (Sigma Chem. Co., USA) concentration was determined by spectrophotometric titration with 4-nitrophenyl-4′-guanidinobenzoate (NPGB) at an enzyme concentration oscillating around 10^−6 M. Standardized trypsin solution was used to titrate BPTI (Sigma Chem. Co., USA) which in turn served to determine the solution concentrations of the produced NSP4. The substrate ABZ-Met-Phe-Pro-Arg-ANB-NH2 recently developed in our lab was used. The deconvolution of peptide libraries was carried out by the iterative solution method. The lyophilizates obtained for each sublibrary were dissolved in dimethyl sulfoxide (DMSO) to a final concentration of 5 mg/ml, and then diluted tenfold in an assay buffer. The fluorescence tests were performed using a FluoroStar OMEGA fluorescent microplate reader (BMG, Germany). The excitation and emission wavelengths were 320 nm and 410 nm for the ABZ/ANB. Enzymatic hydrolysis of the peptide was performed in 20 mM Tris-Cl buffer supplemented by 150 mM NaCl (pH 7.4) at 37 °C and continued over 30 min.
Assay conditions for the determination of the Michaelis constants (KM) and catalytic constants (kcat) were as noted above. The specificity constants (kcat/KM) were calculated from kcat and KM values. Measurements were performed with an enzyme concentration of 1.46 × 10^−9 M. Three to five measurements were carried out for each compound (systematic error expressed as a standard deviation never exceeded 20%). The calculated initial hydrolysis rates were used as a measure of the substrate activity of the investigated peptides. All details of kinetic studies and the method of calculating kinetic parameters have been described elsewhere.

human NSP4 [4] = biological target: T1, human NSP4; assay: Iterative deconvolution in solution of library ABZ-X4-X3-X2-Arg-ANB-NH2 against NSP4; type: biochemical; settings: ABZ-Dap(O2(Cbz))-Dap(Cbz)-X2-Arg-ANB-NH2, 18 individual peptides; 3.4 × 10^−5 M, NSP4 1.46 × 10^−8 M (Figure 3); pH 7.4, 37 °C, 30 min; fluorescence
Method: In order to construct a novel type of internally quenched library, we used different monoprotected heterobifunctional PEG moieties to diversify a library based on a diaminopropionic acid scaffold (Fig. 1 presents the library formula and its chemical components). The library was synthesized using the mix and split method via Fmoc chemistry. The formation of Dap-PEG conjugates was performed on resin via a submonomeric method (one example of DAPEG-based molecule synthesis is presented in Fig. 2). Our goal was to investigate P2, P3, and P4 subsite preferences with a fixed P1 position occupied by an Arg residue. Each peptide in the library was flanked by a C-terminal amide of 5-amino-2-nitrobenozic acid (acceptor of fluorescence) and an N-terminal 2-amino benzoic acid (fluorescence donor) pair which allowed for simultaneous UV and fluorescence monitoring. Screening process was performed using an iterative mode of deconvolution in solution.
Figure 3 The deconvolution of the library (at average concentration 3.4 × 10^−5 M) with general formula ABZ-X4-X3-X2-Arg-ANB-NH2 against NSP4 (1.46 × 10^−8 M).
For the enzymatic studies, we used human NSP4 expressed in a Pichia pastoris expression system as described in ref. [15]. […] The fluorescence tests were performed using a FluoroStar OMEGA fluorescent microplate reader (BMG, Germany). […]

cathepsin G (CatG) = assay: Selectivity: incubation with cathepsin G; type: biochemical, human; settings: substrate 1.97 μM; CatG 10^−8 M, 8.7 nM (Figure 5A legend); pH 7.4, 37 °C, 30 min
Method: (§2) Figure 5 Incubation of substrate 1 (1.97 μM) with (A) neutrophil serine proteases (cathepsin G, elastase, and proteinase 3) at a concentration of 8.7 nM; (B) set of blood-associated proteases involving cathepsins and kallikreins.
as §1, with “Enzymatic hydrolysis of the peptide was performed in 20 mM Tris-Cl buffer supplemented by 150 mM NaCl (pH 7.4) at 37 °C and continued over 30 min.” left out

[5] = system: human neutrophil elastase (HNE); assay: Selectivity: incubation with neutrophil elastase; type: biochemical; settings: substrate 1.97 μM; HNE 10^−8 M, 8.7 nM (Figure 5A legend); pH 7.4, 37 °C, 30 min
Method: as §2
as §1, with “Enzymatic hydrolysis of the peptide was performed in 20 mM Tris-Cl buffer supplemented by 150 mM NaCl (pH 7.4) at 37 °C and continued over 30 min.” left out

proteinase 3 (PR3) = assay: Selectivity: incubation with proteinase 3; type: biochemical, human; settings: substrate 1.97 μM; PR3 10^−8 M, 8.7 nM (Figure 5A legend); pH 7.4, 37 °C, 30 min
Method: as §2
as §1, with “Enzymatic hydrolysis of the peptide was performed in 20 mM Tris-Cl buffer supplemented by 150 mM NaCl (pH 7.4) at 37 °C and continued over 30 min.” left out

KLK14 = assay: Selectivity: incubation with KLK14; type: biochemical, human; settings: substrate 1.97 μM; Figure 5B; pH 7.4, 37 °C, 30 min
Method: as §2
as §1, with “Enzymatic hydrolysis of the peptide was performed in 20 mM Tris-Cl buffer supplemented by 150 mM NaCl (pH 7.4) at 37 °C and continued over 30 min.” left out

[6] = system: set of proteases related to blood cells, including cathepsins and kallikreins; assay: Selectivity: set of blood-associated proteases (cathepsins and kallikreins); type: biochemical; settings: substrate 1.97 μM, enzymes 10^−8 M, Figure 5B, pH 7.4, 37 °C, 30 min
Method: as §2
as §1, with “Enzymatic hydrolysis of the peptide was performed in 20 mM Tris-Cl buffer supplemented by 150 mM NaCl (pH 7.4) at 37 °C and continued over 30 min.” left out

hNSP4 [7] = assay: Detection limit of hNSP4 with substrate 1; type: biochemical, human
Method: The incubation of substrate 1 with decreasing amounts of hNSP4 yielded a visible fluorescence (signal-to-noise ratio of 3:1) at 10^−11 M of the studied enzyme (Fig. S8).
as §1, with “Enzymatic hydrolysis of the peptide was performed in 20 mM Tris-Cl buffer supplemented by 150 mM NaCl (pH 7.4) at 37 °C and continued over 30 min.” left out

NSP4 [8] = assay: NSP4-mediated proteolysis of substrate 1 in the selectivity panel; type: biochemical, human; settings: substrate 1 1.97 μM; Figure 5
Method: as §2
as §1, with “Enzymatic hydrolysis of the peptide was performed in 20 mM Tris-Cl buffer supplemented by 150 mM NaCl (pH 7.4) at 37 °C and continued over 30 min.” left out

[9] = qualitative statement
[10] = 20 mM Tris-Cl, 150 mM NaCl, pH 7.4, 37 °C, NSP4 1.46 × 10^−9 M, fluorescence ex 320 / em 410 nm, three to five measurements, SD never exceeded 20%

T1 sequence (Q6UWY2 32-283): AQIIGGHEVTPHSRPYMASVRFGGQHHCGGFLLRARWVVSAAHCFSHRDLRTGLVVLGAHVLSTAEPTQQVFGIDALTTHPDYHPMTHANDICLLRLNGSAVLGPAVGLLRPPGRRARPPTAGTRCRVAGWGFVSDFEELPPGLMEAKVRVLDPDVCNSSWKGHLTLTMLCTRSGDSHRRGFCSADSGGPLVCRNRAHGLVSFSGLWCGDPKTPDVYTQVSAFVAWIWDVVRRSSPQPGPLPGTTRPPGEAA

With `N=C(N)NCCC[C@H](NC(=O)[C@H](CNC(=O)COCCNC(=N)N)NC(=O)[C@H](CNC(=O)OCc1ccccc1)NC(=O)[C@H](CNC(=O)COCCOCCNC(=O)OCc1ccccc1)NC(=O)c1ccccc1N)C(=O)O` [ABZ-Dap(O2(Cbz))-Dap(Cbz)-Dap(GO1)-Arg-OH] (H-[2Abz][Dap]([AEEA-Cbz])[Dap](Cbz)[Dap](X1)R-OH) the “stability of the cleaved fluorescent fragment with hNSP4” value (hNSP4 [1]) was “no further degraded up to 48 h” and the “stability of the cleaved fluorescent fragment with hNSP4” value (hNSP4 [1]; listed as cleaved N-terminal fragment of the peptidomimetic chain) was “exceptional proteolytic stability”.
In the case of Ac-hCha-Phe(4-guanidine)-Oic-Arg-ACC, the Km (NSP4 [2]; ref [19]) is listed as 61 ± 9.1 µM, the kcat (NSP4 [2]; ref [19]) is listed as 2.0 ± 0.5 s⁻¹ and the kcat/KM (NSP4 [2]; ref [19]) is listed as 32,786 M^−1 × s^−1.
For “MCA-PEG-Ile-Arg-Arg-Ser-Ser-Tyr-Ser-Phe-Lys(Dnp)-Lys”, the Km (NSP4 [2]; ref [18]) is listed as 13.8 ± 3.3 µM, the kcat (NSP4 [2]; ref [18]) is listed as 0.136 ± 0.008 s⁻¹ and the kcat/KM (NSP4 [2]; ref [18]) is listed as 10,000 M^−1 × s^−1.
“ABZ-Dap(O2(Cbz))-Dap(Cbz)-Dap(GO1)-Arg-ANB-NH2 [substrate 1]” showed a Km (human NSP4 [3]; [10]) of 7.6 ± 0.5 µM, a kcat (human NSP4 [3]; [10]) of 1 s⁻¹ and a kcat (human NSP4 [3]; 20 mM Tris-Cl, 150 mM NaCl, pH 7.4, 37 °C, NSP4 1.46 × 10^−9 M, fluorescence ex 320 / em 410 nm, three to five measurements, SD never exceeded 20%, listed as ABZ-Dap(O2(Cbz))-Dap(Cbz)-Dap(GO1)-Arg-ANB-NH2) of 1.0 ± 0.1 s⁻¹. The kcat/KM (human NSP4 [3]; pH 7.4, 37 °C, NSP4 1.46 × 10^−9 M) was 130000 M⁻¹ s⁻¹, the kcat/KM (human NSP4 [3]; pH 7.4, 37 °C, NSP4 1.46 × 10^−9 M, listed as ABZ-Dap(O2(Cbz))-Dap(Cbz)-Dap(GO1)-Arg-ANB-NH2) was 131,579 M^−1 × s^−1 and the kcat/KM (human NSP4 [3]; pH 7.4, 37 °C, NSP4 1.46 × 10^−9 M, listed as the developed compound) was “over 1.31 × 10^5 M^−1 × s^−1”. For the same molecule, the “specificity (kcat/KM) relative to substrate selected by Kasperkiewicz et al. [19]” value (human NSP4 [3]; comparison with literature substrate, Kasperkiewicz et al.[19]) was 4 times higher, the “proteolysis / fluorescent intensity, peptides modified at X2” value (human NSP4 [4]) was “most susceptible for NSP4-mediated proteolysis” and the “proteolysis by CatG” value (cathepsin G (CatG)) was “no visible proteolysis”. The “proteolysis by HNE” value [5] was “no visible proteolysis”, the “proteolysis by PR3” value (proteinase 3 (PR3)) was “no visible proteolysis” and the “degradation by KLK14 compared with NSP4” value (KLK14) was “to a much lesser extend to degradation by KLK14”. For the same molecule, the “cleavage by other blood-associated proteases” value [6] was “No other proteolytic enzyme at a concentration of 10^−8 M was able to cleave any of the peptide bonds”, the “detection limit in words” value (hNSP4 [7]; NSP4 detection with substrate 1) was “subnanomolar” and the “detection limit (hNSP4 concentration giving visible fluorescence)” value (hNSP4 [7]; signal-to-noise ratio of 3:1, constant amount of substrate 1, decreasing amounts of hNSP4, Fig. S8) was 10^−11 M. The “cleavage site by hNSP4” value (hNSP4 [1]; substrate 1 1.97 μM, 0, 15 min, 24 h, 48 h, MS identification) was “cleavage of the peptide bond located between Arg and ANB-NH2”, the “susceptibility to NSP4-mediated proteolysis” value (NSP4 [8]) was “susceptible to NSP4-mediated proteolysis” and the solubility in water [9] was “excellent solubility in water”.
